These are literature values, as cited in US20250367153A1, “COMPOSITION AND APPLICATION THEREOF” (priority 2024, published 2025).

In data set [1] the test system is rat, mouse, and guinea pig.

In general, LD50 refers to the dose at which mortality reaches 50%. Consider `OCC=Cc1ccccc1` [cinnamyl alcohol], for which the 50% lethal dose (LD50) in data set [1] is listed as 2675 mg/kg.
For the compound `NCC(=O)O` [glycine], the “NOAEL (no-observed-adverse-effect level)” value in the data set with rat is recorded as “at least 2000 mg/kg/day”.
Regarding `O=CC=Cc1ccccc1` [cinnamaldehyde], the median lethal dose (LD50) in data set [1] is on record as 3400 mg/kg.
In the case of phosphatidylserine, the “acute oral LD50” value with rats and dogs (acute oral) is recorded as “greater than 5 g/kg bw”. In the data set with rats and dogs (rats and dogs), the NOAEL is listed as 1,000 mg/kg bw/day.
